“And” between values parts separate entries of the source, which are not always exact repeats. Equal entries are not always repeated. Inconclusive results and toxic doses are left out. Rule for the calls: active = survival T/C of 150% or more; inactive = T/C below 125% in these data.
System: CD2F1 mice, L1210 leukemia ip, survival T/C
Test: NCI In Vivo Anticancer Drug Screen. Data for tumor model L1210 Leukemia (intraperitoneal) in CD2F1 (CDF1) mice
Details: endpoint: mean survival time, higher = longer survival
Summary of the method: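 Mice carrying a transplanted tumor received test compound or vehicle alone. The value is the measurement in the treated group divided by that in the vehicle-treated control group.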

[1] = dose: 25.0 mg/kg/injection, schedule: Q01DX005 (ip), vehicle: other
[2] = dose: 50.0 mg/kg/injection, schedule: Q01DX005 (ip), vehicle: other
[3] = dose: 100.0 mg/kg/injection, schedule: Q01DX005 (ip), vehicle: other
[4] = dose: 400.0 mg/kg/injection, schedule: Q01DX005 (ip), vehicle: other
[5] = dose: 100.0 mg/kg/injection, schedule: Q01DX009 (ip), vehicle: saline with Tween-80
[6] = dose: 200.0 mg/kg/injection, schedule: Q01DX009 (ip), vehicle: saline with Tween-80
[7] = dose: 100.0 mg/kg/injection, schedule: Q04DX003 (ip), vehicle: saline with Tween-80
[8] = dose: 200.0 mg/kg/injection, schedule: Q04DX003 (ip), vehicle: saline with Tween-80
[9] = dose: 400.0 mg/kg/injection, schedule: Q04DX003 (ip), vehicle: saline with Tween-80

Measured: T/C

CCCCCCCCCCCCCCCCOC(=O)c1cc([N+](=O)[O-])cc([N+](=O)[O-])c1Sc1ncnc2nc[nH]c12
inactive: dose: 0.63 mg/kg/injection, schedule: Q01DX005 (ip), vehicle: other 105 % of control | dose: 1.25 mg/kg/injection, schedule: Q01DX005 (ip), vehicle: other 108 % of control | dose: 2.5 mg/kg/injection, schedule: Q01DX005 (ip), vehicle: other 113 % of control | dose: 5.0 mg/kg/injection, schedule: Q01DX005 (ip), vehicle: other 113 % of control | dose: 10.0 mg/kg/injection, schedule: Q01DX005 (ip), vehicle: other 120 % of control | dose: 12.5 mg/kg/injection, schedule: Q01DX005 (ip), vehicle: other 109 % of control | dose: 15.7 mg/kg/injection, schedule: Q01DX005 (ip), vehicle: other 106 % of control | [1] 117 % of control and 112 % of control | dose: 31.3 mg/kg/injection, schedule: Q01DX005 (ip), vehicle: other 124 % of control | [2] 115 % of control and 122 % of control | [3] 116 % of control | [4] 118 % of control

COc1cccc2c1C(=O)c1c(OC)cccc1C2=O
inactive: [1] 104 % of control | [2] 101 % of control | [3] 101 % of control | dose: 200.0 mg/kg/injection, schedule: Q01DX005 (ip), vehicle: other 97 % of control | [4] 93 % of control

CC(=O)c1ccc2sc3ccccc3c2c1
inactive: [5] 98 % of control | [6] 93 % of control | dose: 400.0 mg/kg/injection, schedule: Q01DX009 (ip), vehicle: saline with Tween-80 93 % of control

CCOC(=O)C#CC1CCCCC1
inactive: dose: 50.0 mg/kg/injection, schedule: Q01DX009 (ip), vehicle: saline with Tween-80 98 % of control | [5] 98 % of control | [6] 102 % of control

CCc1cc(/C=C2\C(=O)C=Cc3ccccc32)c(O)s1
inactive: dose: 25.0 mg/kg/injection, schedule: Q04DX002 (ip), vehicle: saline with Tween-80 101 % of control | dose: 50.0 mg/kg/injection, schedule: Q04DX002 (ip), vehicle: saline with Tween-80 96 % of control | dose: 100.0 mg/kg/injection, schedule: Q04DX002 (ip), vehicle: saline with Tween-80 96 % of control

O=C(Nc1c[nH]c(=O)[nH]c1=O)C(Cl)Cl
inactive: dose: 100.0 mg/kg/injection, schedule: Q04DX003 (ip), vehicle: other 109 % of control | dose: 200.0 mg/kg/injection, schedule: Q04DX003 (ip), vehicle: other 94 % of control

CCCCC(NCCNC(CCCC)C(=O)O)C(=O)O (configuration not stated)
inactive: [7] 102 % of control | [8] 91 % of control | [9] 107 % of control

O=C1NC(c2ccccc2)N=C2Oc3ccccc3C=C12 (configuration not stated)
inactive: dose: 1.56 mg/kg/injection, schedule: Q01DX009 (ip), vehicle: saline with Tween-80 103 % of control | dose: 3.12 mg/kg/injection, schedule: Q01DX009 (ip), vehicle: saline with Tween-80 94 % of control and 97 % of control and 98 % of control | dose: 6.25 mg/kg/injection, schedule: Q01DX009 (ip), vehicle: saline with Tween-80 100 % of control (2×) and 103 % of control | [5] 92 % of control

CCOC(=N)c1ccccc1
inactive: dose: 100.0 mg/kg/injection, schedule: Q01DX001 (ip), vehicle: saline with Tween-80 94 % of control | dose: 100.0 mg/kg/injection, schedule: Q04DX003 (ip), vehicle: Klucel (hydroxypropylcellulose) (HPC) 103 % of control | dose: 200.0 mg/kg/injection, schedule: Q01DX001 (ip), vehicle: saline with Tween-80 97 % of control | dose: 200.0 mg/kg/injection, schedule: Q04DX003 (ip), vehicle: Klucel (hydroxypropylcellulose) (HPC) 101 % of control | dose: 400.0 mg/kg/injection, schedule: Q01DX001 (ip), vehicle: saline with Tween-80 102 % of control | dose: 400.0 mg/kg/injection, schedule: Q04DX003 (ip), vehicle: Klucel (hydroxypropylcellulose) (HPC) 105 % of control

Cc1ccc([N+](=O)[O-])cc1O
inactive: dose: 25.0 mg/kg/injection, schedule: Q01DX009 (ip), vehicle: saline 97 % of control | dose: 50.0 mg/kg/injection, schedule: Q01DX009 (ip), vehicle: saline 106 % of control | dose: 100.0 mg/kg/injection, schedule: Q01DX009 (ip), vehicle: saline 100 % of control

COc1ccc(-c2nc3cc(Cl)ccc3c(=O)o2)cc1
inactive: [7] 88 % of control | [8] 91 % of control | [9] 88 % of control

Reference: PubChem BioAssay AID256 (DTP/NCI, 2004)
